Experimental data reported in ChEMBL document CHEMBL1127610, “Synthesis and atypical antipsychotic profile of some 2-(2-piperidinoethyl)benzocycloalkanones as analogues of butyrophenone” (J Med Chem, 1994).

Legend:
Rattus norvegicus = organism: Rattus norvegicus; assay: Value was obtained against serotonin-induced (5-HT2A) contractions in rat aorta rings; conditions: read-out: pA2 (converted)
D(1A) dopamine receptor = D(1A) dopamine receptor (Rattus norvegicus, UniProt P18901); assay: Inhibition of [3H]-SCH- 23390 binding to dopamine receptor D1 rat striatal membrane
[1] = target: 5-hydroxytryptamine receptor 2A (Rattus norvegicus, UniProt P14842); assay: Inhibition of [3H]ketanserin binding to 5-hydroxytryptamine 2A receptor rat frontal cortex membrane; format: tissue-based
D(2) dopamine receptor = D(2) dopamine receptor (Rattus norvegicus, UniProt P61169); assay: Inhibition of [3H]-spiperone […] binding to dopamine receptor D2 rat striatal membrane
Sequence of D(2) dopamine receptor (P61169 whole entry): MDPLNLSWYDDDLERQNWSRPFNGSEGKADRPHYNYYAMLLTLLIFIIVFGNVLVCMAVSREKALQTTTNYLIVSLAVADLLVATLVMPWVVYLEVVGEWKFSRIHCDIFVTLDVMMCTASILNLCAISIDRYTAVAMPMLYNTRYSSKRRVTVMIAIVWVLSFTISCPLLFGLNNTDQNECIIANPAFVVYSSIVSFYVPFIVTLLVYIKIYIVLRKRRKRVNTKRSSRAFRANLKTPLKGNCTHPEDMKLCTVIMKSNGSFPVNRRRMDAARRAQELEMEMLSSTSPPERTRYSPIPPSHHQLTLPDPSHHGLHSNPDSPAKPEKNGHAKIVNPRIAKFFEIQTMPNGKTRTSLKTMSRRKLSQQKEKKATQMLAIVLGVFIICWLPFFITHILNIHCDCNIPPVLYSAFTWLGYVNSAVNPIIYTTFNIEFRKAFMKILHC

Sequence of 5-hydroxytryptamine receptor 2A (P14842 whole entry): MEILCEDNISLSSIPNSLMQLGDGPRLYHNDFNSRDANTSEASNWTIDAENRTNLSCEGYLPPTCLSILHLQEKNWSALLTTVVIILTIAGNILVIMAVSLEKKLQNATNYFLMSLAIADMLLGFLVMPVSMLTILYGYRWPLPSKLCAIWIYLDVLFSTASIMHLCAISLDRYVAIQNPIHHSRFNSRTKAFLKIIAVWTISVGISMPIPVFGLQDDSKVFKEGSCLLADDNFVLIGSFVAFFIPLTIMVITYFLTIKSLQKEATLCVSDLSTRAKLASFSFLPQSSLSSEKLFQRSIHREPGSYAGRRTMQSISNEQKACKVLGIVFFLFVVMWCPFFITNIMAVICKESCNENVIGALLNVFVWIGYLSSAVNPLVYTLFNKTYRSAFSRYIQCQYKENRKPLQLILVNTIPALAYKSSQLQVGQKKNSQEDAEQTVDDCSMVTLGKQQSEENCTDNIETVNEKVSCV
Sequence of D(1A) dopamine receptor (P18901 whole entry): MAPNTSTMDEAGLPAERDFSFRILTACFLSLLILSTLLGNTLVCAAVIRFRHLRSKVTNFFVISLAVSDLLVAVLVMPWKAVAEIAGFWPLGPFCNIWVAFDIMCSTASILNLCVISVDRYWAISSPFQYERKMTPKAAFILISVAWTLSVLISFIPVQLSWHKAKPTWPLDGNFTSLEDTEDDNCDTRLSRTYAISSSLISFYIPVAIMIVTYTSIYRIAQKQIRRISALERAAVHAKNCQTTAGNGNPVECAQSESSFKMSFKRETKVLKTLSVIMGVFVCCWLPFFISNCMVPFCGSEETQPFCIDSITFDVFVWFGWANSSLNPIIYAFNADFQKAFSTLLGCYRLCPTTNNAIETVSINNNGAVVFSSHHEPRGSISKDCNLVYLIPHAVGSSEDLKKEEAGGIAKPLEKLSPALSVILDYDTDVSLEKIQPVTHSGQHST

Row | Ki (D(1A) dopamine receptor) | Ki [1] | Ki (D(2) dopamine receptor) | SMILES | Kb (Rattus norvegicus)
1 | 2820 nM | 2.51 nM |  | O=C(c1ccc(F)cc1)C1CCN(CCC2Cc3ccccc3C2=O)CC1 (stereo not drawn) | 7.59 nM
2 | 1550 nM | 7.76 nM |  | O=C(c1ccc(F)cc1)C1CCN(CCC2CCc3ccccc3C2=O)CC1 (stereo not drawn) | 35.5 nM
3 | 1290 nM | 12.9 nM |  | O=C(c1ccc(F)cc1)C1CCN(CCC2CCCc3ccccc3C2=O)CC1 (stereo not drawn) | 178 nM
4 | 1100 nM | 3.8 nM | 47.9 nM | O=C(c1ccc(F)cc1)C1CCN(CCC2Cc3cc(F)ccc3C2=O)CC1 (stereo not drawn) | 7.59 nM
